Literature values, collected in US10450317B2, “Notch pathway signaling inhibitor compounds” (Eli Lilly and Company, priority 2015, dated 2019).

Experiments:
[1] = systemic administration; cited from earlier work
auditory hair cells = settings: middle ear delivery, mice with acoustic trauma; cited from earlier work

## C[C@H](NC(=O)[C@@H](O)c1cc(F)cc(F)c1)C(=O)N[C@@H]1C(=O)N(C)c2ccccc2-c2ccccc21 [LY411575]
[1]
  toxicity: Dose limiting toxicity was shown
Auditory hair cells
  hearing recovery by regeneration of auditory hair cells: significant, measurable, hearing recovery
